The structures appear in SMILES notation. Entries after “also recorded” stand apart in the source; their conditions may differ.

For one assay, the target named is T1, RNF4 (Homo sapiens, UniProt P78317).
T1 construct: purchased Boston Biochem K-220
T1 sequence (P78317 1-190): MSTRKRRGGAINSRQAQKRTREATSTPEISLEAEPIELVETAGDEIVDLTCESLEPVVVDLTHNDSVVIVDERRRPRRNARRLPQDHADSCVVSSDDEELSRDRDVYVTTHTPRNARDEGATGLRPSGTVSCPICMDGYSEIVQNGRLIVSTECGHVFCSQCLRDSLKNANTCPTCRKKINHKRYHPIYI
The experiment in a line: Gel-based ABPP, competition against IA-rhodamine labeling of pure RNF4. It counts as binding. Conditions: for IC50: read-out: 50% inhibitory concentration (IC50), IA-rhodamine labeling of RNF4, densitometry; for IC50 / hits from covalent ligand screen against IA-rhodamine labeling of RNF4: 30 min pre-incubation; for hits from covalent ligand screen against IA-rhodamine labeling of RNF4: covalent ligands 50 μM, IA-rhodamine 250 nM 1 h. On the procedure:
Gel-Based ABPP. Gel-based ABPP methods were performed as previously described^5,6,25,26. Pure recombinant human RNF4 was purchased from Boston Biochem (K-220). RNF4 (0.25 μg) was diluted into 50 μL of PBS and 1p L of either DMSO (vehicle) or covalently acting small molecule to achieve the desired concentration. After 30 minutes at room temperature, the samples were treated with 250 nM IA-Rhodamine (Setareh Biotech, 6222, prepared in anhydrous DMSO) for 1 h at room temperature. Samples were then diluted with 20 μL of 4× reducing Laemmli SDS sample loading buffer (Alfa Aesar) and heated at 90° C. for 5 min. The samples were separated on precast 4-20% Criterion TGX gels (Bio-Rad Laboratories, Inc.). Fluorescent imaging was performed on a ChemiDoc MP (Bio-Rad Laboratories, Inc) inhibition of target labeling was assessed by densitometry using ImageJ.

The subject of assay [1] is 231MFP breast cancer cells. The experiment in a line: isoTOP-ABPP proteome-wide selectivity in 231MFP cells in situ. The class given is cell-based, human. On the procedure:
IsoTOP-ABPP chemoproteomic studies. IsoTOP-ABPP studies were done as previously reported^4,6,7,12. […] Proteomes were subsequently treated with IA-alkyne (100 μM, Chess GmbH, 3187) for 1 h at RT. […] Tryptic peptides were eluted off.
Mass Spectrometry Analysis.

In assay [2] the test system is BRD4. The experiment in a line: Cell based degrader assay, BRD4 levels by Western blotting in 231MFP cells. The arrangement: species or system human. The note with it: for dose-response of BRD4 degradation: 12 h. How it is done: (§1) Cell based degrader assays. For assaying degrader activity, cells were seeded (500,000 for 231MFP cells, 300,000 for HeLa cells) into a 6 cm tissue culture dish (Corning) in 2.0-2.5 mL of media and allowed to adhere overnight. The following morning, media was replaced with complete media containing the desired concentration of compound diluted from a 1000× stock in DMSO. At the specified timepoint, cells were washed once with PBS on ice, before 150 uL of lysis buffer was added to the plate (10 mM sodium phosphate, 150 mM NaCl, 0.1% SDS, 0.5% sodium deoxycholate, 1% Triton X100). The cells were incubated in lysis buffer for 5 min before scraping and transfer to microcentrifuge tubes. The lysates were then frozen at −80 C or immediately processed for western blotting. To prepare for western blotting, the lysates were cleared with 20,000 g spin for 10 min and the resulting supernatants quantified via BCA assay. The lysates were normalized by dilution with PBS to match the lowest concentration lysate and appropriate amount of 4× Laemmli's reducing buffer added.
Western blotting. Antibodies to RNF4 (Proteintech, 17810-1-AP, 1:1000), GAPDH (Proteintech, 60004-1-IG, 1:5000), BRD4 (Abcam, Ab128874, 1:1000), and beta-actin (Proteintech Group Inc., 6609-1-IG, 1:7000) were obtained from the specified commercial sources and dilutions were prepared in 5% BSA/TBST at the specified dilutions.

In assay [3] the target is T2, BRD4 (Homo sapiens, UniProt O60885).
T2 construct: endogenous in cells; host or cells: HeLa cells, RNF4 wild-type and RNF4 knockout
The experiment in a line: BRD4 degradation in RNF4 wild-type and knockout HeLa cells. The class given is cell-based. Conditions: 10 μM 5 h. On the procedure:
Cell Culture. The 231MFP cells were obtained from Prof. Benjamin Cravatt and were generated from explanted tumor xenografts of MDA-MB-231 cells as previously described^27. RNF4 knockout HeLa cells were purchased from EdiGene USA (CL0033025003A). RNF4 wild-type HeLa cells were provided by EdiGene USA or the UC Berkeley Cell Culture Facility. 231MFP cells were cultured in L-15 media (Corning) containing 10% (v/v) fetal bovine serum (FBS) and maintained at 37° C. with 0% CO2. HeLa cells were cultured in DMEM media (Corning) containing 10% (v/v) fetal bovine serum (FBS) and maintained at 37° C. with 5% CO2.
as §1, with “The cells were incubated in lysis buffer for 5 min before scraping and transfer to microcentrifuge tubes. The lysates were then frozen at −80 C or immediately processed for western blotting.” left out, “The lysates were normalized by dilution with PBS to match the lowest concentration lysate and appropriate amount of 4× Laemmli's reducing buffer added.” left out

Another assay deals with human RNF114. The experiment in a line: Gel-based ABPP, competition against JNS27 labeling of pure RNF114. It counts as binding. Conditions: JNS27 50 μM. How it is done:
(§2) Gel-Based ABPP. Gel-based ABPP methods were performed as previously described^34,62,63,67. Recombinant pure human proteins were purchased from Origene. […] CuAAC was performed to append rhodamine-azide (1 μM final concentration) onto alkyne probe-labeled proteins. Samples were then diluted with 20 μL of 4× reducing Laemmli SDS sample loading buffer (Alfa Aesar) and heated at 90° C. for 5 min. The samples were separated on precast 4-20% TGX gels (Bio-Rad Laboratories, Inc.). Prior to scanning by ChemiDoc MP (Bio-Rad Laboratories, Inc), gels were fixed in a solution of 10% acetic acid, 30% ethanol for 2 hrs. Inhibition of target labeling was assessed by densitometry using ImageJ.
as §2, with “described^14.” for “described^34,62,63,67.”

The test system of assay [4] is BRD4. The experiment in a line: BRD4 degradation in RNF114 wild-type and knockout HAP1 cells. It counts as cell-based, human.
Assay [5] concerns 231MFP breast cancer cells. The experiment in a line: TMT-based quantitative proteomic profiling of 231MFP cells. The class given is cell-based, human. The note with it: 100 nM, 12 h.
From the text: Data shown in (FIG. 22F) are for 6397 proteins quantified with 2 or more unique peptides in n=3 biologically independent samples/group.
Data shown in FIG. 23I are for 5797 proteins quantified with 2 or more unique peptides in triplicate treatments.
The next assay relates to 231MFP cells. The experiment in a line: Quantitative proteomic profiling of proteins enriched by the nimbolide-alkyne probe in 231MFP cells. It counts as cell-based, human. The note with it: in situ labeling of 231MFP cells.
A further assay addresses T3, RNF114 (Homo sapiens, UniProt Q9Y508).
T3 construct: Myc; FLAG; purchased Origene
The experiment in a line: Nimbolide-alkyne labeling of RNF114 in 231MFP cells in situ. The class given is cell-based. How it is done:
Biotin-azide was appended to probe-labeled proteins by CuAAC, and these proteins were subsequently avidin-enriched. Resulting pulled down proteins were analyzed by SDS/PAGE and Western blotting for RNF114. Gels shown in FIGS. 21C-21F are representative gels from n=3 biologically independent samples/group.

T3 sequence (Q9Y508 whole entry): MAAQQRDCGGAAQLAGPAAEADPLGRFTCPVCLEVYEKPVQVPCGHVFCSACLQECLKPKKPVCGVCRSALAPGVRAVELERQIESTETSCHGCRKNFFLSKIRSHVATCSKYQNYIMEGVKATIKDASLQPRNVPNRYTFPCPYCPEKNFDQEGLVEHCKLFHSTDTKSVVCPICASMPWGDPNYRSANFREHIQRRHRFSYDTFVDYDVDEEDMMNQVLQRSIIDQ

Take `COc1ccc(Oc2ccc(N(Cc3ccccc3)C(=O)CCl)cc2)cc1` [CCW16, N-benzyl-2-chloro-N-(4-(4-methoxyphenoxy)phenyl)acetamide]: on RNF4, the “reduced IA-rhodamine labeling of RNF4 observed down to” value worked out at 1 µM and the IC50 stood at 1800 nM. Also, in [1], the “selectivity for RNF4 in cells” value is given as “not yet completely selective”.

`Cc1sc2c(c1C)C(c1ccc(Cl)cc1)=N[C@@H](CC(=O)NCCCCOc1ccc(Oc3ccc(N(Cc4ccccc4)C(=O)CCl)cc3)cc1)c1nnc(C)n1-2` [CCW 28-3, (S)—N-benzyl-2-chloro-N-(4-(4-(4-(2-(4-(4-chlorophenyl)-2,3,9-trimethyl-6H-thieno[3,2-f][1,2,4]triazolo[4,3-a][1,4]diazepin-6-yl)acetamido)butoxy)phenoxy)phenyl)acetamide]: on RNF4, the IC50 is 540 nM. The “BRD4 degradation compared with MZ1” value with BRD4 [2] was “does not degrade BRD4 as well as”. Also, the BRD4 degradation entry with BRD4 [2] (231MFP cells, 3 h) is on record as “leads to BRD4 degradation; also recorded: degrades BRD4 in a dose-responsive manner”. In addition, in the assay with BRD4 [2] (231MFP, inhibitors 10 μM 30 min, degrader 1 μM 3 h), the “BRD4 degradation after pre-treatment with bortezomib (BTZ), JQ1 or TAK-243” value is on record as “prevented”. Moreover, the “BRD4 degradation in RNF4 knockout cells” value on BRD4 [3] (RNF4 knockout HeLa) is recorded as “not evident”. Also, the “BRD4 degradation in HeLa control cells” value on BRD4 [3] (RNF4 wild-type) is recorded as “observed”. Further, in assay [1], the “selectivity for RNF4 in cells” value is reported as “not yet completely selective”. In addition, the “off-targets part of the ubiquitin-proteasome system” value in assay [1] (10 μM in situ) is “none of these off-targets of CCW 28-3 are part of the ubiquitin-proteasome system”. The “targets with isotopically light to heavy ratios greater than 4 out of 1114 total quantified probe-modified peptides” value in assay [1] (10 μM in situ 1 h, IA-alkyne 100 μM) is 7.

As for `CC(CCc1ccccc1)NC(=O)CCl` (stereo not shown) [DKM 2-76], the “hits from covalent ligand screen against IA-rhodamine labeling of RNF4” value (from here on “hits from covalent ligand screen”) at RNF4 is given as “potential hits”.

For `C#CCC1CCC=CC1=O` (stereo not shown) [JNS27, reference compound], in the assay with human RNF114, the “probe labeling of RNF114, wild-type versus C8A mutant” value is given as “selective labeling of C8 on RNF114”.

As for `Cc1ncsc1-c1ccc(CNC(=O)[C@@H]2C[C@@H](O)CN2C(=O)[C@@H](NC(=O)COCCOCCOCCNC(=O)C[C@@H]2N=C(c3ccc(Cl)cc3)c3c(sc(C)c3C)-n3c(C)nnc32)C(C)(C)C)cc1` [MZ1, reference compound], the “dose-response of BRD4 degradation” value in the assay on BRD4 [2] (231MFP cells) is “less degradation at 20 μM compared to 10, 1, and 0.1 μM; also recorded: better BRD4 degradation at 1 and 0.1 μM, and equivalent degradation to XH2 at 10 nM”.

Consider `C=CC(=O)NC1Cc2ccccc2C1` [TRH 1-74], for which the “hits from covalent ligand screen” value at RNF4 was “potential hits”.

As for `O=C(CCl)Nc1cccc2cnccc12` [TRH 1-163, 2-Chloro-N-(isoquinolin-5-yl)acetamide], the “inhibition of IA-rhodamine labeling of RNF4” value on RNF4 (confirmation of screening hits) was “reproducible and dose-responsive inhibition”. For the same compound, the “hits from covalent ligand screen” value at RNF4 is “potential hits”. Besides, the “silver staining of RNF4” value on RNF4 (gel-based ABPP gels silver stained) is “may be causing protein precipitation”.

Consider `COC(=O)C[C@H]1[C@]2(C)C3=C(C)[C@H](c4ccoc4-c4ccc(C(=O)NCCOCCOCCOCCNC(=O)C[C@@H]5N=C(c6ccc(Cl)cc6)c6c(sc(C)c6C)-n6c(C)nnc65)cc4)C[C@H]3O[C@@H]2[C@@H]2OC(=O)[C@]3(C)C=CC(=O)[C@@]1(C)[C@@H]23` [XH1], for which, in the assay on BRD4 [2] (231MFP cells, 12 h treatment), the BRD4 degradation entry is listed as “did not show appreciable BRD4 degradation”.

As to `COC(=O)C[C@H]1[C@]2(C)C3=C(C)[C@H](c4ccoc4-c4ccc(C(=O)NCCCNC(=O)C[C@@H]5N=C(c6ccc(Cl)cc6)c6c(sc(C)c6C)-n6c(C)nnc65)cc4)C[C@H]3O[C@@H]2[C@@H]2OC(=O)[C@]3(C)C=CC(=O)[C@@]1(C)[C@@H]23` [XH2], the “time to BRD4 degradation” value with BRD4 [2] (231MFP cells, 100 nM) is no more than 12 h. Besides, the “dose-response of BRD4 degradation” value with BRD4 [2] (231MFP cells) was “less degradation at 1 μM compared to 0.1 and 0.01 μM”. In the assay on BRD4 [2] (231MFP cells, 12 h treatment), the BRD4 degradation result is reported as “led to BRD4 degradation”. Further, the “BRD4 degradation with proteasome inhibitor bortezomib (BTZ)” value in the assay with BRD4 [2] (231MFP, BTZ 1 μM, degrader 100 nM 12 h) is on record as “attenuated”. For the same compound, the “BRD4 degradation with TAK-243 or pre-competing JQ1” value in the assay on BRD4 [2] (231MFP, TAK-243 10 μM or JQ1 1 μM, degrader 100 nM 12 h) is on record as “prevented; also recorded: attenuated”. Also, the “BRD4 degradation with translation inhibitor emetine” value in the assay with BRD4 [2] (231MFP, emetine 75 μM, degrader 100 nM 12 h) is recorded as “had no effect”. In addition, the “BRD4 degradation after re-expression of wild-type RNF114 in HAP1 RNF114 knockout cells” value in the assay on BRD4 [4] is “restoration of BRD4 degradation”. Moreover, the “BRD4 degradation in RNF114 knockout (KO) HAP1 cells” value in the assay with BRD4 [4] (100 nM, 12 h) is reported as “not observed”. In assay [5], the “BRD2 and BRD3 levels” value is “sparing the other identified BET family members BRD2 and BRD3”; the “selectivity of protein degradation, BRD4” value is given as “selectively degrades BRD4”.

Consider `C#CCNC(=O)c1ccc(-c2occc2[C@@H]2C[C@H]3O[C@@H]4[C@@H]5OC(=O)[C@]6(C)C=CC(=O)[C@](C)([C@@H](CC(=O)OC)[C@]4(C)C3=C2C)[C@@H]56)cc1` [nimbolide-alkyne probe], for which, in the assay on 231MFP cells, the “additional proteins enriched by >10-fold compared to no-probe controls” value was 114 and the “enrichment of RNF114 compared to no-probe controls” value is reported as greater than 10 fold. Also, at RNF114 (231MFP cells expressing Flag-RNF114, 2 h), the “in situ probe labeling of Flag-tagged RNF114 observed down to” value was determined as 100 nM. Moreover, on RNF114 (231MFP cells, 50 μM probe, 1.5 h), the “pulldown of endogenous RNF114” value is listed as “significant pulldown”.

Values taken from US12161648B2, “Covalent targeting of E3 ligases” (The Regents of the University of California, priority 2018, dated 2024).
